Assay results from US20260271931A1, “HERBICIDAL MIXTURES” (Bayer Aktiengesellschaft, priority 2023, published 2026).
Read-outs that look alike come from different tables or passages of the source.

Assays:
Format in all cases: in vivo
Avena fatua (AVEFA) = assay: Post-emergence action against weeds, greenhouse pot test, visual rating: Avena fatua; conditions: for pest or weed control at 4 g/ha: 4 g a.i./ha
Eleusine indica (ELEIN) = assay: Post-emergence action against weeds, greenhouse pot test, visual rating: Eleusine indica; conditions: for pest or weed control at 50 g/ha: 50 g a.i./ha; for pest or weed control at 150 g/ha: 150 g a.i./ha; for pest or weed control at 15 g/ha: 15 g a.i./ha
Protocol: (§1) When the observed efficacies already exceed the formal sum total of the values of the tests with individual applications, they also exceed the expected value according to Colby, which is calculated using the formula below and is likewise regarded as an indication of synergism (cf. S. R. Colby; in Weeds 15 (1967) pp. 20 to 22):
(§2) where: • A=efficacy of the active ingredient (A) in % at an application rate of a [g a.i./ha]; • B=efficacy of the active ingredient (B) in % at an application rate of b [g a.i./ha]; • E^C=expected value of the effect of the combination (A)+(B) in % at the combined application rate a+b [g a.i./ha].
(§3) The observed values (E^A) from the experiments, given suitable low dosages, show an effect of the combinations exceeding the expected values according to Colby (E^C) (Δ).
(§4) Seeds of mono- and dicotyledonous weeds were placed in sandy loam in pots, covered with soil and grown in a greenhouse under good growth conditions (temperature, air humidity, water supply). Two to three weeks after sowing, the test plants were treated at the two- to four-leaf stage with the compositions of the invention. The compositions of the invention, formulated as spray powders or as emulsion concentrates, were sprayed onto the green parts of the plant in various dosages with an application rate equivalent to […] of water. After the test plants had been kept in the greenhouse under optimum growth conditions for 3 weeks, the activity of the preparations was rated visually in comparison to untreated controls.
(§5) 100% efficacy means complete control of the particular weed tested.
(§6) 0% efficacy means zero control of the particular weed tested.
(§7) Expected values according to Colby are reported under E.
(§8) The exceedance of the expected value E is given as Δ (=synergistic effect).
(§9) The rating period is reported in days after application (DAT).

[1] = test system: Sorghum halepense (SORHA); assay: Post-emergence action against weeds, greenhouse pot test, visual rating: Sorghum halepense
Protocol: as §1, §2, §3, §4, §5, §6, §7, §8, §9

[2] = test system: Pharbitis purpurea (PHBPU); assay: Post-emergence action against weeds, greenhouse pot test, visual rating: Pharbitis purpurea
Protocol: as §1, §2, §3, §4, §5, §6, §7, §8, §9

[3] = test system: Echinochloa crus-galli (ECHCG); assay: Post-emergence action against weeds, greenhouse pot test, visual rating: Echinochloa crus-galli
[4] = test system: Brachiaria platyfylla (BRAPP); assay: Post-emergence action against weeds, greenhouse pot test, visual rating: Brachiaria platyfylla
Protocol: as §1, §2, §3, §4, §5, §6, §7, §8, §9

Lolium rigidum (LOLRI) = assay: Post-emergence action against weeds, greenhouse pot test, visual rating: Lolium rigidum
Kochia scoparia (KCHSC) = assay: Post-emergence action against weeds, greenhouse pot test, visual rating: Kochia scoparia
Centaurea cyanus (CENCY) = assay: Post-emergence action against weeds, greenhouse pot test, visual rating: Centaurea cyanus
Protocol: as §1, §2, §3, §4, §5, §6, §7, §8, §9

Bidens pilosa (BIDPI) = assay: Post-emergence action against weeds, greenhouse pot test, visual rating: Bidens pilosa
[5] = Eleusine indica, post-emergence, 240 h, read-out: Herbicidal effect [%] on ELEIN 10 DAT
[6] = Eleusine indica, post-emergence, 504 h, read-out: Herbicidal effect [%] on ELEIN 21 DAT
[7] = Avena fatua, 240 h, 10 DAT, read-out: Herbicidal effect [%] on AVEFA 10 DAT
[8] = Bassia scoparia, post-emergence, 504 h, read-out: Herbicidal effect [%] on KCHSC 21 DAT
[9] = post-emergence, 240 h, read-out: Herbicidal effect [%] on BRAPP 10 DAT
[10] = Lolium rigidum, 504 h, read-out: Herbicidal effect [%] on LOLRI 21 DAT

## O=C(Nc1ccc(F)cc1F)c1cccnc1Oc1cccc(C(F)(F)F)c1 [Diflufenican, diflufenican]
Avena fatua (AVEFA); Avena fatua, 240 h, 10 DAT, 120 g a.i./ha, read-out: Herbicidal effect [%] on AVEFA 10 DAT
  pest or weed control at 120 g/ha: 10%
Eleusine indica (ELEIN); Eleusine indica, post-emergence, 504 h, 120 g a.i./ha, read-out: Herbicidal effect [%] on ELEIN 21 DAT
  pest or weed control at 120 g/ha: 10%
[1]; 120 g a.i./ha, 21 DAT
  Herbicidal effect [%] on SORHA 21 DAT: 0%

## CCS(=O)(=O)c1cccnc1S(=O)(=O)NC(=O)Nc1nc(OC)cc(OC)n1 [Rimsulfuron, rimsulfuron]
Avena fatua (AVEFA); 0.9 g a.i./ha
  Herbicidal effect [%] on AVEFA 21 DAT: 50%
Avena fatua (AVEFA); Avena fatua, 240 h, 10 DAT, 0.9 g a.i./ha, read-out: Herbicidal effect [%] on AVEFA 10 DAT
  pest or weed control at 0.9 g/ha: 60%
[2]; 0.9 g a.i./ha
  Herbicidal effect [%] on PHBPU 21 DAT: 10%
Eleusine indica (ELEIN); Eleusine indica, post-emergence, 504 h, 0.9 g a.i./ha, read-out: Herbicidal effect [%] on ELEIN 21 DAT
  pest or weed control at 0.9 g/ha: 40%
[3]; 0.9 g a.i./ha
  Herbicidal effect [%] on ECHCG 21 DAT: 90%

## COc1c(Cl)ccc(-c2nc(C(=O)O)c(Cl)c(N)c2F)c1F [Florpyrauxifen, florpyrauxifen]
[2]; 1 g a.i./ha
  Herbicidal effect [%] on PHBPU 21 DAT: 10%

## CCNc1nc(Cl)nc(NC(C)(C)C)n1 [Terbuthylazine, terbuthylazine]
[4]; post-emergence, 240 h, 50 g a.i./ha, read-out: Herbicidal effect [%] on BRAPP 10 DAT
  pest or weed control at 50 g/ha: 10%
Lolium rigidum (LOLRI); Lolium rigidum, 504 h, 50 g a.i./ha, 21 DAT, read-out: Herbicidal effect [%] on LOLRI 21 DAT
  pest or weed control at 50 g/ha: 0%
Eleusine indica (ELEIN); [5]
  pest or weed control at 50 g/ha: 85%
Eleusine indica (ELEIN); [6]
  pest or weed control at 50 g/ha: 70%
[3]; 50 g a.i./ha
  Herbicidal effect [%] on ECHCG 10 DAT: 10%
  Herbicidal effect [%] on ECHCG 21 DAT: 0%

## CP(=O)(O)CCC(N)C(=O)O (stereo not drawn) [Glufosinate, glufosinate]
Eleusine indica (ELEIN); [5]
  pest or weed control at 30 g/ha: 10%

## CCOCN(C(=O)CCl)c1c(C)cccc1CC [Acetochlor, acetochlor]
Lolium rigidum (LOLRI); 150 g a.i./ha
  Herbicidal effect [%] on LOLRI 10 DAT: 40%
Lolium rigidum (LOLRI); Lolium rigidum, 504 h, 150 g a.i./ha, 21 DAT, read-out: Herbicidal effect [%] on LOLRI 21 DAT
  pest or weed control at 150 g/ha: 0%
Eleusine indica (ELEIN); [5]
  pest or weed control at 150 g/ha: 80%
Eleusine indica (ELEIN); [6]
  pest or weed control at 150 g/ha: 90%

## CS(=O)(=O)c1ccc(C(=O)C2C(=O)CCCC2=O)c([N+](=O)[O-])c1 [Mesotrione, mesotrione]
Kochia scoparia (KCHSC); 4 g a.i./ha
  Herbicidal effect [%] on KCHSC 10 DAT: 30%
Avena fatua (AVEFA); [7]
  pest or weed control at 4 g/ha: 10%
[4]; post-emergence, 504 h, 4 g a.i./ha, read-out: Herbicidal effect [%] on BRAPP 21 DAT
  pest or weed control at 4 g/ha: 0%
Lolium rigidum (LOLRI); Lolium rigidum, 504 h, 4 g a.i./ha, 21 DAT, read-out: Herbicidal effect [%] on LOLRI 21 DAT
  pest or weed control at 4 g/ha: 0%
Eleusine indica (ELEIN); Eleusine indica, post-emergence, 504 h, 4 g a.i./ha, read-out: Herbicidal effect [%] on ELEIN 21 DAT
  pest or weed control at 4 g/ha: 10%
Centaurea cyanus (CENCY); 4 g a.i./ha
  Herbicidal effect [%] on CENCY 21 DAT: 40%

## CCSC(C)CC1CC(=O)C(/C(CC)=N/OC/C=C/Cl)=C(O)C1 (stereo not drawn) [Clethodim, clethodim]
Kochia scoparia (KCHSC); [8]
  pest or weed control at 8 g/ha: 0%
[4]; [9]
  pest or weed control at 8 g/ha: 85%
Lolium rigidum (LOLRI); 8 g a.i./ha
  Herbicidal effect [%] on LOLRI 10 DAT: 80%
Eleusine indica (ELEIN); [6]
  pest or weed control at 8 g/ha: 30%
[1]; 8 g a.i./ha, 10 DAT
  Herbicidal effect [%] on SORHA 10 DAT: 80%

## bicyclopyrone
Bidens pilosa (BIDPI); 3 g a.i./ha
  Herbicidal effect [%] on BIDPI 21 DAT: 10%
Eleusine indica (ELEIN); 3 g a.i./ha
  Herbicidal effect [%] on ELEIN 21 DAT: 30%
Centaurea cyanus (CENCY); 3 g a.i./ha
  Herbicidal effect [%] on CENCY 10 DAT: 50%

## C[n+]1ccc(-c2cc[n+](C)cc2)cc1 [Paraquat, paraquat]
Lolium rigidum (LOLRI); [10]
  pest or weed control at 40 g/ha: 10%
Eleusine indica (ELEIN); [5]
  pest or weed control at 40 g/ha: 40%
Eleusine indica (ELEIN); [6]
  pest or weed control at 40 g/ha: 10%

## COc1c(Cl)ccc(Cl)c1C(=O)O [Dicamba, dicamba]
Kochia scoparia (KCHSC); 5 g a.i./ha
  Herbicidal effect [%] on KCHSC 10 DAT: 20%
Kochia scoparia (KCHSC); [8]
  pest or weed control at 5 g/ha: 20%
Bidens pilosa (BIDPI); 5 g a.i./ha
  Herbicidal effect [%] on BIDPI 10 DAT: 30%
  Herbicidal effect [%] on BIDPI 21 DAT: 40%
[4]; [9]
  pest or weed control at 5 g/ha: 0%
[4]; post-emergence, 504 h, read-out: Herbicidal effect [%] on BRAPP 21 DAT
  pest or weed control at 5 g/ha: 0%
Lolium rigidum (LOLRI); [10]
  pest or weed control at 5 g/ha: 0%
Eleusine indica (ELEIN); [5]
  pest or weed control at 5 g/ha: 0%
Eleusine indica (ELEIN); [6]
  pest or weed control at 5 g/ha: 0%
[3]; 5 g a.i./ha
  Herbicidal effect [%] on ECHCG 10 DAT: 0%

## CS(=O)(=O)c1cc(C(F)(F)F)ccc1C(=O)c1cnoc1C1CC1 [Isoxaflutole, isoxaflutole]
Kochia scoparia (KCHSC); Bassia scoparia, post-emergence, 504 h, 4 g a.i./ha, read-out: Herbicidal effect [%] on KCHSC 21 DAT
  pest or weed control at 4 g/ha: 30%
Bidens pilosa (BIDPI); 4 g a.i./ha
  Herbicidal effect [%] on BIDPI 21 DAT: 40%
Avena fatua (AVEFA); [7]
  pest or weed control at 4 g/ha: 30%
[2]; 4 g a.i./ha
  Herbicidal effect [%] on PHBPU 21 DAT: 10%
[3]; 4 g a.i./ha
  Herbicidal effect [%] on ECHCG 10 DAT: 60%
  Herbicidal effect [%] on ECHCG 21 DAT: 40%

## COC(=O)c1csc(C)c1S(=O)(=O)NC(=O)n1nc(OC)n(C)c1=O [Thiencarbazone-methyl]
Avena fatua (AVEFA); 0.33 g a.i./ha
  Herbicidal effect [%] on AVEFA 21 DAT: 88%
Lolium rigidum (LOLRI); 0.33 g a.i./ha, 21 DAT
  Herbicidal effect [%] on LOLRI 21 DAT: 88%
[2]; 0.33 g a.i./ha
  Herbicidal effect [%] on PHBPU 21 DAT: 40%
Centaurea cyanus (CENCY); 0.33 g a.i./ha
  Herbicidal effect [%] on CENCY 21 DAT: 40%

## O=C(O)COc1ccc(Cl)cc1Cl [2,4-D]
Avena fatua (AVEFA); 10 DAT, 40 g a.i./ha
  Herbicidal effect [%] on AVEFA 10 DAT: 0%
[4]; 40 g a.i./ha
  Herbicidal effect [%] on BRAPP 10 DAT: 0%
  Herbicidal effect [%] on BRAPP 21 DAT: 0%
Eleusine indica (ELEIN); 40 g a.i./ha
  Herbicidal effect [%] on ELEIN 10 DAT: 10%
Centaurea cyanus (CENCY); 40 g a.i./ha
  Herbicidal effect [%] on CENCY 21 DAT: 75%

## Cn1nc(C(F)(F)F)c(CS(=O)(=O)C2=NOC(C)(C)C2)c1OC(F)F [Pyroxasulfone, pyroxasulfone]
Kochia scoparia (KCHSC); Bassia scoparia, post-emergence, 504 h, 15 g a.i./ha, read-out: Herbicidal effect [%] on KCHSC 21 DAT
  pest or weed control at 15 g/ha: 0%
[4]; post-emergence, 240 h, 15 g a.i./ha, read-out: Herbicidal effect [%] on BRAPP 10 DAT
  pest or weed control at 15 g/ha: 20%
Eleusine indica (ELEIN); [5]
  pest or weed control at 15 g/ha: 10%
Eleusine indica (ELEIN); [6]
  pest or weed control at 15 g/ha: 60%

## CCNc1nc(Cl)nc(NC(C)C)n1 [Atrazine, atrazine]
[2]; 50 g a.i./ha, 10 DAT
  Herbicidal effect [%] on PHBPU 10 DAT: 30%
[2]; 50 g a.i./ha
  Herbicidal effect [%] on PHBPU 21 DAT: 20%
Eleusine indica (ELEIN); [5]
  pest or weed control at 50 g/ha: 30%
Eleusine indica (ELEIN); [6]
  pest or weed control at 50 g/ha: 0%

## O=C(O)CNCP(=O)(O)O [Glyphosate, glyphosate]
Kochia scoparia (KCHSC); [8]
  pest or weed control at 30 g/ha: 0%
[3]; 30 g a.i./ha
  Herbicidal effect [%] on ECHCG 10 DAT: 20%
